In experiment [1] the target is Erk1 (Homo sapiens (Human), UniProt P27361). Nature of the experiment: Protein Mass Modification Assay (intact protein MALDI). Type of experiment: binding. The gist of the method: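 Human Erk1 was incubated 60 min at room temperature with a 10-fold molar excess of compound, then analysed as intact protein by MALDI with sinapinic acid matrix. The centroid mass shift versus untreated protein was divided by compound molecular weight to give percent modified protein.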

Experiment [2] addresses MEK1 activated ERK1 (Homo sapiens (Human), UniProt P27361). Nature of the experiment: Omnia continuous-read kinase assay for potency against MEK1 activated ERK1. Type of experiment: biochemical. From the text: Omnia Assay Protocol for Potency Assessment Against MEK1 Activated ERK1:
The protocol below describes continuous-read kinase assays to measure potency of compounds against activated ERK1 enzyme. The mechanics of the assay platform are best described by the vendor (Invitrogen, Carlsbad, Calif.) on their website at the following URL: invitrogen.com/site/us/en/home.html.
Briefly, a 1.25× stock of ERK1 enzyme (14-439-K) from Millipore (Billerica, Mass.), 5×ATP (AS001A) and ST17-Sox conjugated peptide substrate (KNZ1171C) were prepared in 1× kinase reaction buffer consisting of 20 mM Tris, pH 7.5, 5 mM MgCl2, 1 mM EGTA, 5 mM β-glycerophosphate, 5% glycerol (10× stock, KB002A) and 0.2 mM DTT. 10 μL of ATP/ST17-sox peptide substrate mix was combined with 0.5 μL volume of 100% DMSO and serially diluted compounds were prepared in 100% DMSO in a Corning (#3574) 384-well, white, non-binding surface microtiter plate (Corning, N.Y.). Kinase reactions were started with the addition of 40 μL of ERK1 solution and monitored every 71 seconds for 30-240 minutes at λex360/λem485 in a Synergy plate reader from BioTek (Winooski, Vt.). At the conclusion of each assay, progress curves from each well were examined for linear reaction kinetics and fit statistics (R^2, 95% confidence interval, absolute sum of squares). Initial velocity (0 minutes to ˜30+ minutes) from each reaction was determined from the slope of a plot of relative fluorescence units vs time (minutes or seconds) and then plotted against inhibitor concentration to estimate ^AppIC50 from log [Inhibitor] vs Response, Variable Slope model in GraphPad Prism from GraphPad Software (San Diego, Calif.).
[Reagent] used in optimized protocol:
[ERK1]=4 nM, [ATP]=50 μM, [ST17-Sox]=10 μM (ATP ^appKM 48 μM)
The results of this assay show the degree of inhibition of ERK activity, which is a direct measurement of inhibition of ERK activity. Results from this assay are reported in Table A under the column “ERK1 Omnia WT ATP KM IC50 (nM).”

Setting [3] is: MEK1 activated ERK1, WT, ATP at KM.

Like-named read-outs stand apart in the source and are kept apart here.

Erk1, sequence (P27361 whole entry, looked up): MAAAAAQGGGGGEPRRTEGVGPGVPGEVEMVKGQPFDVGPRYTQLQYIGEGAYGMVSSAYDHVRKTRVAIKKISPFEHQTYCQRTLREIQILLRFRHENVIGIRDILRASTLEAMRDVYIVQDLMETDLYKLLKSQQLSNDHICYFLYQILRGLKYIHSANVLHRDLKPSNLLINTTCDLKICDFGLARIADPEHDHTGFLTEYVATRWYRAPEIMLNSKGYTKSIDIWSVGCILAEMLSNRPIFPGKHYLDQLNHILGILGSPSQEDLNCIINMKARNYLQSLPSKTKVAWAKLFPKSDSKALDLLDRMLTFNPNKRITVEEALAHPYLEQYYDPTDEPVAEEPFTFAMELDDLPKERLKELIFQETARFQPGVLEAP
MEK1 activated ERK1, sequence (P27361 whole entry): as the sequence (P27361 whole entry, looked up) above

Regarding `C=CC(=O)Nc1ccccc1Nc1nc(Nc2cc(C(N)=O)ccc2OC)ncc1C(F)(F)F` [Compound I-70, 3-((4-((2-Acrylamidophenyl)amino)-5-(trifluoromethyl)pyrimidin-2-yl)amino)-4-methoxybenzamide], the “ERK1 Mass Mod (%)” value in experiment [1] is recorded as “E (provided a mass modification of ≧70%)”. The IC50 (as a rule, the midpoint of a concentration-inhibition curve) in experiment [2] (setting [3]) is < 100 nM.

On to `C=CC(=O)Nc1ccccc1Nc1nc(Nc2cc(C(N)=O)ccc2C#N)ncc1C(F)(F)F` [Compound I-71, 3-((4-((2-Acrylamidophenyl)amino)-5-(trifluoromethyl)pyrimidin-2-yl)amino)-4-cyanobenzamide], for which, in experiment [1], the “ERK1 Mass Mod (%)” value was “E (provided a mass modification of ≧70%)”. Besides, in experiment [2] (setting [3]), the IC50 was < 100 nM.

For the molecule `C=CC(=O)Nc1cc(OC)ccc1Nc1nc(Nc2cc(OC)nc(N3CCN(CC)CC3)c2)ncc1C(F)(F)F` [Compound I-88, N-(2-((2-((2-(4-Ethylpiperazin-1-yl)-6-methoxypyridin-4-yl)amino)-5-(trifluoromethyl)pyrimidin-4-yl)amino)-5-methoxyphenyl)acrylamide], the “ERK1 Mass Mod (%)” value in experiment [1] was “E (provided a mass modification of ≧70%)”. For the same molecule, in experiment [2] (setting [3]), the IC50 is < 100 nM.

Take `C=CC(=O)Nc1cc(C)ccc1Nc1nc(Nc2cc(OC)ncc2C)ncc1C(F)(F)F` [Compound I-90, N-(2-((2-((2-Methoxy-5-methylpyridin-4-yl)amino)-5-(trifluoromethyl)pyrimidin-4-yl)amino)-5-methylphenyl)acrylamide]: the “ERK1 Mass Mod (%)” value in experiment [1] was “E (provided a mass modification of ≧70%)”. Also, the IC50 in experiment [2] (setting [3]) is < 100 nM.

On to `C=CC(=O)Nc1cc(OC)ccc1Nc1nc(Nc2cc(OC)nc(N3CCN(C(C)=O)CC3)c2)ncc1C(F)(F)F` [Compound I-91, N-(2-((2-((2-(4-Acetylpiperazin-1-yl)-6-methoxypyridin-4-yl)amino)-5-(trifluoromethyl)pyrimidin-4-yl)amino)-5-methoxyphenyl)acrylamide], for which the “ERK1 Mass Mod (%)” value in experiment [1] is recorded as “E (provided a mass modification of ≧70%)”. In experiment [2] (setting [3]), the IC50 was < 100 nM.

For `C=CC(=O)Nc1ccccc1Nc1nc(Nc2cc(OC)nc(OC)c2)ncc1C(F)(F)F` [Compound I-95, N-(2-((2-((2,6-Dimethoxypyridin-4-yl)amino)-5-(trifluoromethyl)pyrimidin-4-yl)amino)phenyl)acrylamide], in experiment [1], the “ERK1 Mass Mod (%)” value is recorded as “E (provided a mass modification of ≧70%)”. Besides, the IC50 in experiment [2] (setting [3]) is < 100 nM.

Take `C=C(C)S(=O)(=O)Nc1cc(C)ccc1Nc1nc(Nc2cc(C(C)=O)ccc2C)ncc1C(F)(F)F` [Compound I-98, N-(2-((2-((5-acetyl-2-methylphenyl)amino)-5-(trifluoromethyl)pyrimidin-4-yl)amino)-5-methylphenyl)prop-1-ene-2-sulfonamide]: the “ERK1 Mass Mod (%)” value in experiment [1] is recorded as “E (provided a mass modification of ≧70%)”. The IC50 in experiment [2] (setting [3]) is < 100 nM.

In the case of `C=CC(=O)Nc1ccccc1Nc1nc(N[C@H]2CCC[C@@H](C(N)=O)C2)ncc1C(F)(F)F` [Compound I-118, (1R,3S)-3-((4-((2-acrylamidophenyl)amino)-5-(trifluoromethyl)pyrimidin-2-yl)amino)cyclohexanecarboxamide], the “ERK1 Mass Mod (%)” value in experiment [1] is recorded as “E (provided a mass modification of ≧70%)”. In addition, the IC50 in experiment [2] (setting [3]) is < 100 nM.

`C=CC(=O)Nc1ccccc1Nc1nc(N[C@@H]2CCC[C@H](C(N)=O)C2)ncc1Cl` [Compound I-119, (1S,3R)-3-((4-((2-acrylamidophenyl)amino)-5-chloropyrimidin-2-yl)amino)cyclohexanecarboxamide]: the “ERK1 Mass Mod (%)” value in experiment [1] was “E (provided a mass modification of ≧70%)”. Moreover, the half-inhibitory concentration (IC50) in experiment [2] (setting [3]) was < 100 nM.

Take `C=CC(=O)Nc1ccccc1Nc1nc(N[C@H]2CCC[C@@H](C(N)=O)C2)ncc1Cl` [Compound I-120, (1R,3S)-3-((4-((2-acrylamidophenyl)amino)-5-chloropyrimidin-2-yl)amino)cyclohexanecarboxamide]: the “ERK1 Mass Mod (%)” value in experiment [1] is listed as “E (provided a mass modification of ≧70%)”. Further, in experiment [2] (setting [3]), the IC50 is < 100 nM.

Turning to `C=CC(=O)Nc1ccccc1Nc1nc(N[C@H]2CCCN(C(=O)CO)C2)ncc1Cl` [Compound I-123, (S)—N-(2-((5-chloro-2-((1-(2-hydroxyacetyl)piperidin-3-yl)amino)pyrimidin-4-yl)amino)phenyl)acrylamide], in experiment [1], the “ERK1 Mass Mod (%)” value is “E (provided a mass modification of ≧70%)”. In experiment [2] (setting [3]), the IC50 was < 100 nM.

As to `C=CC(=O)Nc1ccccc1Nc1nc(NC2CCN(C=O)CC2)ncc1Cl` [Compound I-124, N-(2-((5-chloro-2-((1-formylpiperidin-4-yl)amino)pyrimidin-4-yl)amino)phenyl) acrylamide], in experiment [1], the “ERK1 Mass Mod (%)” value was “E (provided a mass modification of ≧70%)”. Besides, in experiment [2] (setting [3]), the IC50 was < 100 nM.

With `C=CC(=O)Nc1ccccc1Nc1nc(N[C@H]2CCCN(S(C)(=O)=O)C2)ncc1Cl` [Compound I-125, (S)—N-(2-((5-chloro-2-((1-(methylsulfonyl)piperidin-3-yl)amino)pyrimidin-4-yl)amino)phenyl)acrylamide], the “ERK1 Mass Mod (%)” value in experiment [1] is “E (provided a mass modification of ≧70%)”. Further, the IC50 in experiment [2] (setting [3]) is < 100 nM.

For the molecule `CCOCCC(=O)Nc1ccccc1Nc1nc(Nc2cc(C(N)=O)ccc2C)ncc1Cl` [Compound I-130], the “ERK1 Mass Mod (%)” value in experiment [1] was “G (proived a mass modification ≦30%)”. Further, the IC50 in experiment [2] (setting [3]) is > 1000 nM.

Consider `C=CC(=O)Nc1ccccc1Nc1nc(N[C@H]2CCCN(C(=O)CC)C2)ncc1Cl` [Compound I-131, (S)—N-(2-((5-chloro-2-((1-propionylpiperidin-3-yl)amino)pyrimidin-4-yl)amino)phenyl)acrylamide], for which, in experiment [1], the “ERK1 Mass Mod (%)” value is listed as “E (provided a mass modification of ≧70%)”. In addition, in experiment [2] (setting [3]), the IC50 is < 100 nM.

Regarding `C=CC(=O)Nc1ccccc1Nc1nc(N[C@H]2CCCN(C(=O)OC(C)(C)C)C2)ncc1Cl` [Compound I-132, (S)-tert-butyl 3-((4-((2-acrylamidophenyl)amino)-5-chloropyrimidin-2-yl)amino) piperidine-1-carboxylate], the “ERK1 Mass Mod (%)” value in experiment [1] is “E (provided a mass modification of ≧70%)”. Moreover, the IC50 in experiment [2] (setting [3]) was > 1000 nM.

In the case of `C=CC(=O)Nc1ccccc1Nc1nc(N[C@H]2CCCN(C(=O)[C@@H](C)O)C2)ncc1Cl` [Compound I-134, N-(2-((5-chloro-2-(((S)-1-((R)-2-hydroxypropanoyl)piperidin-3-yl)amino)pyrimidin-4-yl)amino)phenyl)acrylamide], the “ERK1 Mass Mod (%)” value in experiment [1] was “E (provided a mass modification of ≧70%)”. The IC50 in experiment [2] (setting [3]) is < 100 nM.

Turning to `C=CC(=O)Nc1ccccc1Nc1nc(N[C@H]2CCCN(C(=O)C3CC3)C2)ncc1Cl` [Compound I-136, (S)—N-(2-((5-chloro-2-((1-(cyclopropanecarbonyl)piperidin-3-yl)amino)pyrimidin-4-yl)amino)phenyl)acrylamide], the “ERK1 Mass Mod (%)” value in experiment [1] is “E (provided a mass modification of ≧70%)”. Besides, in experiment [2] (setting [3]), the IC50 was < 100 nM.

For the molecule `C=CC(=O)Nc1ccccc1Nc1nc(N[C@H]2CCCN(C(=O)C(C)C)C2)ncc1Cl` [Compound I-137, (S)—N-(2-((5-chloro-2-((1-isobutyrylpiperidin-3-yl)amino)pyrimidin-4-yl)amino)phenyl)acrylamide], the “ERK1 Mass Mod (%)” value in experiment [1] was “E (provided a mass modification of ≧70%)”. Besides, the half-maximal inhibitory concentration (IC50) in experiment [2] (setting [3]) is < 100 nM.

As to `C=CC(=O)Nc1cc(C)ccc1Nc1nc(N[C@H]2CCCN(C(C)=O)C2)ncc1Cl` [Compound I-139, (S)—N-(2-((2-((1-acetylpiperidin-3-yl)amino)-5-chloropyrimidin-4-yl)amino)-5-methylphenyl)acrylamide], the “ERK1 Mass Mod (%)” value in experiment [1] was “E (key: E: provided a mass modification of ≧70%; F: provided a mass modification of 31-69%; G: proived a mass modification ≦30%)”. For the same molecule, the half-maximal inhibitory concentration (IC50) in experiment [2] (read-out: ERK1 Omnia WT ATP KM IC50) is < 100 nM.

For `C=CC(=O)Nc1ccccc1Nc1nc(Nc2ccc(NC(C)=O)cc2C(F)(F)F)ncc1Cl` [Compound I-150, N-(2-((2-((4-acetamido-2-(trifluoromethyl)phenyl)amino)-5-chloropyrimidin-4-yl)amino)phenyl)acrylamide], the “ERK1 Mass Mod (%)” value in experiment [1] is “E (provided a mass modification of ≧70%)”. The IC50 in experiment [2] (setting [3]) is > 1000 nM.

`C=CC(=O)Nc1cc(OC)ccc1Nc1nc(Nc2ccc(N3CCN(C(=O)OC(C)(C)C)CC3)cc2OC)ncc1Cl` [Compound I-151, tert-butyl 4-(4-((4-((2-acrylamido-4-methoxyphenyl)amino)-5-chloropyrimidin-2-yl)amino)-3-methoxyphenyl)piperazine-1-carboxylate]: the “ERK1 Mass Mod (%)” value in experiment [1] is reported as “F (provided a mass modification of 31-69%)”. In addition, the half-inhibitory concentration (IC50) in experiment [2] (setting [3]) is > 1000 nM.
